{"source": "patent US20210353633A1", "about": "“CYCLODEXTRIN-BASED FORMULATION OF A BCL-2 INHIBITOR” (LES LABORATOIRES SERVIER, priority 2018, published 2021)", "key": {"[1]": {"test": "Aqueous solubility of Compound A", "assay_type": "physicochemical", "conditions": "aqueous medium, aqueous buffer; at pH=2.5", "text": "In order to enable safe and effective administration of Compound A, and to elicit the required therapeutic effects, Compound A needs to be solubilized at higher concentration than its aqueous solubility."}, "[2]": {"test": "PK parameters in RS4;11 grafted female SCID mice", "assay_type": "in vivo", "conditions": "one i.v. treatment; for Co / tlast / concentration at 6 h / AUC / half-life: 20% HP-β-cyclodextrin solution; for concentration at 6 h / AUC / half-life / AUC(0-t): female, SCID, mouse, blood; for concentration at 6 h: intravenous, read-out: Clast; for AUC / half-life / AUC(0-t): iv; for half-life: read-out: t1/2, z (converted); for AUC(0-t): administration to the last point", "description": "RS4;11 cell line, obtained from ATCC, were subcutaneously injected into female SCID mice, provided by Charles River. When tumors reached the appropriate tumor volume, mice were randomized using Easy stat software. […]\nIn a 100 mL flask, introduce 20 g of Cavitron™ W7HP5 and add around 75 mL of a solution water/0.9% NaCl (70/30, v/v). Stir for 15 minutes at room temperature. Then, make up the solution to a volume of 100 mL by adding the previous solution water/0.9% NaCl, while maintaining magnetic stirring. Weigh the necessary amount of ‘Compound A, H2SO4’ and dissolve it with the previous 20% w/v Cavitron™ W7H5 solution. Heat the whole at 60° C. under vigorous magnetic stirring until solubilisation of the components of the mixture is complete. Measure the pH of the solution obtained. Adjust the pH to 3 by adding drop by drop, either HCl 0.1N or NaOH 0.1N, depending on the concentration of Compound A. Stir the mixture at least for 1 hour. Filtrate the obtained solution with a 0.2 μm-filter.\nA 20% w/v Cavitron™ W7H5 solution containing a dose of 4 mg/mL of Compound A was prepared following this procedure. A second solution containing a dose of 1.5 mg/mL of Compound A was also prepared by diluting further the previous solution with the 20% w/v Cavitron™ W7H5 solution."}, "[3]": {"test": "Solubility test in various carriers (Example 1)", "assay_type": "physicochemical", "conditions": "thermodynamic from solid; for solubility at 2 h: read-out: Solubility after 2 h; for solubility at 24 h: read-out: Solubility after 24 h", "description": "The solubility of ‘Compound A, H2SO4’ was studied in various media, including: • citrate buffer (pH=2; 50 mM), acetate buffer (pH=4; 50 mM) and phosphate buffer (pH=6-7.4; 67.7 mM); • cyclodextrins of the type sulfobutyl ether β-cyclodextrin (SBE-β-cyclodextrin) or hydroxypropyl β-cyclodextrin (HP-β-cyclodextrin); more precisely, the SBE-β-cyclodextrin tested is Dexsolve™ marketed by Cyclolab, while the HP-β-cyclodextrins tested are Cavitron™ W7HP7 and Cavitron™ W7HP5 marketed by Wacker; Kleptose™ HP and Kleptose™ HPB marketed by Roquette; • surfactants such as polysorbate 80 and Kolliphor™ ELP; • the mixture PEG400/ethanol/0.9% NaCl (40/10/50).\n5 g of the cyclodextrin studied (Dexsolve™, Cavitron™ W7HP7, Cavitron™ W7HP5, Kleptose™ HP or Kleptose™ HPB) are weighed into a […] graduated flask. Approximately 15 mL of water are added and the whole obtained is subjected to magnetic stirring. The volume is then made up to 25 mL by the addition of water. The whole is placed under magnetic stirring for 10 minutes.\n1 g of the surfactant studied is weighed into a 50 mL graduated flask. The volume is then made up to 50 mL by means of 0.9% NaCl solution. The whole is placed under magnetic stirring for 1 hour.\n20 mL of PEG 400, 5 mL of ethanol and 25 mL of NaCl are taken. The whole is placed in a 100 mL Erlenmeyer flask and stirred magnetically for 30 minutes.\nApproximately 340 mg of ‘Compound A, H2SO4’ are weighed into a 5 mL tube. 3 mL of the medium containing the carrier to be tested are then added. The whole is then placed under magnetic stirring for 2 hours or 24 hours. The suspension or solution so obtained is passed through a 0.2 μm filter (PVDF membrane—Millipore) before being analysed by HPLC. In addition, the presence of degradation products of Compound A was investigated in the samples stored for 72 hours at ambient temperature."}, "[4]": {"test": "Solubility test of Compound A, H2SO4 in a HP-β-cyclodextrin as a function of the pH", "assay_type": "physicochemical", "conditions": "for solubility at 24 h: aqueous HP-β-cyclodextrin (Cavitron W7HP5) solution, aqueous with cosolvent or surfactant or cyclodextrin, thermodynamic from solid, read-out: Solubility after 24 h", "description": "The solubility of ‘Compound A, H2SO4’ was studied in the presence of a HP-β-cyclodextrin as a function of the pH.\n10 g of the cyclodextrin studied (Cavitron™ W7HP5) are placed in a 50 mL graduated flask. 40 mL of water are then added. The whole is placed under magnetic stirring. The volume is then made up with water to 50 mL.\nApproximately 856.7 mg of ‘Compound A, H2SO4’ are weighed. 30 mL of the medium containing the carrier to be tested, that is to say Cavitron™ W7HP5, are then added. The whole is placed under magnetic stirring for 24 hours. The suspension so obtained is passed through a 0.2 μm filter (PALL—PES membrane—diameter 25 mm) before being analysed by HPLC.\nIn other tests, the pH of the solution is then modified by means of 0.1 N NaOH solution until values of 4 and 8.8 are reached, before the analysis by HPLC chromatography is carried out."}, "[5]": {"conditions": "2% Kolliphor ELP solution, aqueous with cosolvent or surfactant or cyclodextrin, carrier: 2% Kolliphor ELP"}, "[6]": {"conditions": "2% Polysorbate 80 solution, aqueous with cosolvent or surfactant or cyclodextrin, carrier: 2% Polysorbate 80"}, "[7]": {"conditions": "aqueous buffer, carrier: Acetate buffer (pH=4; 50 mM)"}, "[8]": {"conditions": "aqueous buffer, carrier: Citrate buffer (pH=2; 50 mM)"}, "[9]": {"conditions": "aqueous buffer, carrier: Phosphate buffer (pH=6-7.4; 67.7 mM)"}, "[10]": {"conditions": "aqueous with cosolvent or surfactant or cyclodextrin, carrier: Cavitron W7HP5, 20% by weight cyclodextrin solution"}, "[11]": {"conditions": "aqueous with cosolvent or surfactant or cyclodextrin, carrier: Cavitron W7HP7, 20% by weight cyclodextrin solution"}, "[12]": {"conditions": "aqueous with cosolvent or surfactant or cyclodextrin, carrier: Dexsolve, 20% by weight cyclodextrin solution"}, "[13]": {"conditions": "aqueous with cosolvent or surfactant or cyclodextrin, carrier: PEG400/EtOH/0.9% NaCl (40/10/50)"}, "[14]": {"conditions": "organic solvent or mixture, carrier: Absolute ethanol"}, "[15]": {"conditions": "organic solvent or mixture, carrier: PEG 400"}}, "note": "Where two headings read alike, the source gives them in different places.", "data": [{"smiles": "Cc1c(N(C(=O)c2cc(-c3cc(Cl)ccc3C(=O)N3Cc4ccccc4C[C@H]3CN3CCOCC3)n(C)c2C)c2ccc(O)cc2)cc(C#N)n1C", "note": "[Compound A, H2SO4, 5-(5-chloro-2-{[(3S)-3-(morpholin-4-ylmethyl)-3,4-dihydroisoquinolin-2(1H)-yl]carbonyl}phenyl)-N-(5-cyano-1,2-dimethyl-1H-pyrrol-3-yl)-N-(4-hydroxyphenyl)-1,2-dimethyl-1H-pyrrole-3-carboxamide]", "values": [{"measurement": "solubility", "setting": "[1]", "value": 1400, "unit": "µg/mL"}, {"measurement": "AUCt/Dose", "setting": "[2]; 15 mg/kg", "value": 1360, "unit": "ng·h/mL per mg/kg"}, {"measurement": "Co", "setting": "[2]; 15 mg/kg", "value": 14692, "unit": "ng/mL"}, {"measurement": "tlast", "setting": "[2]; 15 mg/kg", "value": 6, "unit": "h"}, {"measurement": "AUCt/Dose", "setting": "[2]; 40 mg/kg", "value": 1140, "unit": "ng·h/mL per mg/kg"}, {"measurement": "Co", "setting": "[2]; 40 mg/kg", "value": 23290, "unit": "ng/mL"}, {"measurement": "tlast", "setting": "[2]; 40 mg/kg", "value": 6, "unit": "h"}, {"measurement": "concentration at 6 h", "setting": "[2]; 15 mg/kg", "value": 58.4, "unit": "ng/mL"}, {"measurement": "concentration at 6 h", "setting": "[2]; 40 mg/kg", "value": 457, "unit": "ng/mL"}, {"measurement": "AUC", "setting": "[2]; 15 mg/kg", "value": 20500, "unit": "ng·h/mL"}, {"measurement": "half-life", "setting": "[2]; 15 mg/kg", "value": 45.6, "unit": "min"}, {"measurement": "AUC", "setting": "[2]; 40 mg/kg", "value": 46500, "unit": "ng·h/mL"}, {"measurement": "half-life", "setting": "[2]; 40 mg/kg", "value": 66, "unit": "min"}, {"measurement": "AUC(0-t)", "setting": "[2]; 15 mg/kg", "value": 20400, "unit": "ng·h/mL"}, {"measurement": "AUC(0-t)", "setting": "[2]; 40 mg/kg", "value": 45800, "unit": "ng·h/mL"}, {"measurement": "solubility at 2 h", "setting": "[3]; [5]", "value": 2080, "unit": "µg/mL"}, {"measurement": "solubility at 24 h", "setting": "[3]; [5]", "value": 1740, "unit": "µg/mL"}, {"measurement": "solubility at 2 h", "setting": "[3]; [6]", "value": 2300, "unit": "µg/mL"}, {"measurement": "solubility at 24 h", "setting": "[3]; [6]", "value": 1960, "unit": "µg/mL"}, {"measurement": "solubility at 2 h", "setting": "[3]; [7]", "value": 200, "unit": "µg/mL"}, {"measurement": "solubility at 24 h", "setting": "[3]; [7]", "value": 180, "unit": "µg/mL"}, {"measurement": "solubility at 2 h", "setting": "[3]; [8]", "value": 240, "unit": "µg/mL"}, {"measurement": "solubility at 24 h", "setting": "[3]; [8]", "value": 250, "unit": "µg/mL"}, {"measurement": "solubility at 2 h", "setting": "[3]; [9]", "value": 210, "unit": "µg/mL"}, {"measurement": "solubility at 24 h", "setting": "[3]; [9]", "value": 520, "unit": "µg/mL"}, {"measurement": "solubility at 2 h", "setting": "[3]; [10]", "value": 25200, "unit": "µg/mL"}, {"measurement": "solubility at 24 h", "setting": "[3]; [10]", "value": 30200, "unit": "µg/mL"}, {"measurement": "solubility at 2 h", "setting": "[3]; [11]", "value": 17900, "unit": "µg/mL"}, {"measurement": "solubility at 24 h", "setting": "[3]; [11]", "value": 21200, "unit": "µg/mL"}, {"measurement": "solubility at 2 h", "setting": "[3]; [12]", "value": 23400, "unit": "µg/mL"}, {"measurement": "solubility at 24 h", "setting": "[3]; [12]", "value": 23200, "unit": "µg/mL"}, {"measurement": "solubility at 24 h", "setting": "[3]; aqueous with cosolvent or surfactant or cyclodextrin, carrier: Kleptose HP, 20% by weight cyclodextrin solution", "value": "25000 to 26000", "unit": "µg/mL"}, {"measurement": "solubility at 24 h", "setting": "[3]; aqueous with cosolvent or surfactant or cyclodextrin, carrier: Kleptose HPB, 20% by weight cyclodextrin solution", "value": "30000 to 31000", "unit": "µg/mL"}, {"measurement": "solubility at 2 h", "setting": "[3]; [13]", "value": 10300, "unit": "µg/mL"}, {"measurement": "solubility at 24 h", "setting": "[3]; [13]", "value": 10800, "unit": "µg/mL"}, {"measurement": "solubility at 2 h", "setting": "[3]; [14]", "value": 1060, "unit": "µg/mL"}, {"measurement": "solubility at 24 h", "setting": "[3]; [14]", "value": 1130, "unit": "µg/mL"}, {"measurement": "solubility at 2 h", "setting": "[3]; [15]", "value": 11700, "unit": "µg/mL"}, {"measurement": "solubility at 24 h", "setting": "[3]; [15]", "value": 11200, "unit": "µg/mL"}, {"measurement": "solubility at 2 h", "setting": "[3]; carrier: Water", "value": 2870, "unit": "µg/mL"}, {"measurement": "solubility at 24 h", "setting": "[3]; carrier: Water", "value": 1560, "unit": "µg/mL"}, {"measurement": "pH from which a precipitate is visually observed", "setting": "[4]; Cavitron W7HP5 200 mg/mL, pH raised with 0.1 N NaOH", "value": 3.2}, {"measurement": "solubility at 24 h", "setting": "[4]; Cavitron W7HP5 200 mg/mL + 0.1N NaOH, pH 4.01", "value": 17100, "unit": "µg/mL"}, {"measurement": "solubility at 24 h", "setting": "[4]; Cavitron W7HP5 200 mg/mL + 0.1N NaOH, pH 8.8", "value": 990, "unit": "µg/mL"}, {"measurement": "solubility at 24 h", "setting": "[4]; Cavitron W7HP5 200 mg/mL, pH 1.86 (without adjustment)", "value": 21600, "unit": "µg/mL"}]}]}
